# What was measured:
# [1] = tested on: Veronica persica; test: Postemergence herbicidal activity in cereal crops; type: in vivo; details: Veronica persica, post-emergence, 480 h, post-emergent, 17.5 g ai/ha, after 20-22 days; read-out: % Control VERPE
# Outline: (§1)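 Plants are raised in a greenhouse for 7-36 days and used at the second to third true leaf stage. Compounds in a mixed organic–aqueous carrier with crop oil and surfactant are sprayed postemergence at 187 L/ha. Treated plants return to the greenhouse with sub-irrigation, alongside blank-sprayed controls.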
# [2] = tested on: barley (Hordeum vulare); test: Postemergence herbicidal activity in cereal crops; type: in vivo; details: Hordeum, post-emergence, 480 h; crop, post-emergent, 17.5 g ai/ha, after 20-22 days; read-out: % Control HORVS
# Outline: as §1
# [3] = tested on: wheat (Triticum aestivum); test: Postemergence herbicidal activity in cereal crops; type: in vivo; details: Triticum aestivum, post-emergence, 480 h; crop, post-emergent, 17.5 g ai/ha, after 20-22 days; read-out: % Control TRZAS
# Outline: as §1
# [4] = tested on: Lamium purpureum; test: Postemergence herbicidal activity in cereal crops; type: in vivo; details: Lamium purpureum, post-emergence, 480 h; post-emergent, 17.5 g ai/ha, after 20-22 days; read-out: % Control LAMPU
# Outline: as §1
# [5] = tested on: Papaver rhoeas; test: Postemergence herbicidal activity in cereal crops; type: in vivo; details: Papaver rhoeas, post-emergence, 480 h, post-emergent, 17.5 g ai/ha, after 20-22 days; read-out: % Control PAPRH
# Outline: as §1
# [6] = tested on: Galium aparine; test: Postemergence herbicidal activity in cereal crops; type: in vivo; details: Galium aparine, post-emergence, 480 h, post-emergent, 17.5 g ai/ha, after 20-22 days; read-out: % Control GALAP
# Outline: as §1
# [7] = tested on: redroot pigweed (Amaranthus retroflexus); test: Postemergence herbicidal activity; type: in vivo; details: Amaranthus retroflexus, post-emergence, 336 h, post-emergent, 140 g ai/ha, after 14 days; read-out: % Control AMARE
# Outline: (§2)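 Plants grown 7-21 days in greenhouse (about 15 h photoperiod, 23-29° C day, 22-28° C night) to first or second true leaf stage. Compounds in acetone/water/isopropanol/DMSO carrier with crop oil concentrate and Triton X-155 sprayed overhead at 187 L/ha; controls received solvent blank. Plants sub-irrigated afterwards; dose responses analysed by probit analysis.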
# [8] = tested on: velvetleaf (Abutilon theophrasti); test: Postemergence herbicidal activity; type: in vivo; details: Abutilon theophrasti, post-emergence, 336 h, post-emergent, 140 g ai/ha, after 14 days; read-out: % Control ABUTH
# Outline: as §2
# [9] = tested on: lambsquarter (Chenopodium album); test: Postemergence herbicidal activity; type: in vivo; details: Chenopodium album, post-emergence, 336 h, post-emergent, 140 g ai/ha, after 14 days; read-out: % Control CHEAL
# Outline: as §2
# [10] = tested on: Cyperus difformis; test: Herbicidal activity in transplanted paddy rice; type: in vivo; details: Cyperus difformis, 504 h, paddy water application, after 3 weeks, read-out: % Control CYPDI; for pest or weed control at 35 g/ha: 35 g ai/ha
# Experimental: (§3) Weed seeds or nutlets of the desired test plant species were planted in puddled soil (mud) prepared by mixing a non-sterilized mineral soil (28 percent silt, 18 percent clay, and 54 percent sand, with a pH of about 7.3 to 7.8 and an organic matter content of about 1.0 percent) and water at a ratio of 100 kg of soil to 19 L of water. The prepared mud was dispensed in 250 mL aliquots into 480 mL non-perforated plastic pots with a surface area of 91.6 square centimeters leaving a headspace of 3 centimeters in each pot. […] Seedlings at the second or third leaf stage of growth were transplanted into 650 mL of mud contained in 960 mL non-perforated plastic pots with a surface area of 91.6 square centimeters 4 days prior to herbicide application. The paddy was created by filling the 3 centimeter headspace of the pots with water. When required to ensure good germination and healthy plants, a fungicide treatment and/or other chemical or physical treatment was applied. The plants were grown for 4-14 days in a greenhouse with an approximate 14 hour photoperiod which was maintained at about 29° C. during the day and 26° C. during the night. Nutrients were added as Osmocote (17:6:10, N:P:K+minor nutrients) at 2 g per pot. Water was added on a regular basis to maintain the paddy flood, and supplemental lighting was provided with overhead metal halide 1000-Watt lamps as necessary. The plants were employed for testing when they reached the second or third true leaf stage. A weighed amount, determined by the highest rate to be tested, of each test compound was placed in a 120 mL glass vial and was dissolved in 20 mL of acetone to obtain concentrated stock solutions. […] Application rates of ½×, ¼×, ⅛× and 1/16× of the high rate were obtained by injecting an appropriate amount of the stock solution into the aqueous layer of the paddy. Control plants were treated in the same manner with the solvent blank. The treated plants and control plants were placed in a greenhouse as described above and water was added as needed to maintain a paddy flood.
# [11] = tested on: rice (Orysa sativa var. Japonica); test: Herbicidal activity in transplanted paddy rice; type: in vivo; details: Oryza sativa, 504 h, transplant rice (crop), paddy water application, after 3 weeks; for pest or weed control at 35 g/ha: 35 g ai/ha
# Experimental: as §3
# [12] = tested on: Scirpus juncoides; test: Herbicidal activity in transplanted paddy rice; type: in vivo; details: Schoenoplectiella juncoides, 504 h, paddy water application, after 3 weeks, read-out: % Control SCPJU; for pest or weed control at 35 g/ha: 35 g ai/ha
# Experimental: as §3
# [13] = tested on: Echinochloa crus-galli; test: Herbicidal activity in transplanted paddy rice; type: in vivo; details: Echinochloa crus-galli, 504 h, paddy water application, after 3 weeks, read-out: % Control ECHCG; for pest or weed control at 35 g/ha: 35 g ai/ha
# Experimental: as §3
# [14] = tested on: Monochoria vaginalis; test: Herbicidal activity in transplanted paddy rice; type: in vivo; details: Pontederia vaginalis, 504 h, paddy water application, after 3 weeks, read-out: % Control MOOVA; for pest or weed control at 35 g/ha: 35 g ai/ha
# Experimental: as §3
melting point [°C],Compound,pest or weed control at 17.5 g/ha [1] [%],pest or weed control at 17.5 g/ha [2] [%],plant injury at 17.5 g/ha [3] [%],pest or weed control at 17.5 g/ha [4] [%],pest or weed control at 17.5 g/ha [5] [%],pest or weed control at 17.5 g/ha [6] [%],pest or weed control at 140 g/ha [7] [%],pest or weed control at 140 g/ha [8] [%],pest or weed control at 140 g/ha [9] [%],pest or weed control at 35 g/ha [10] [%],pest or weed control at 35 g/ha [11] [%],pest or weed control at 35 g/ha [12] [%],pest or weed control at 35 g/ha [13] [%],pest or weed control at 35 g/ha [14] [%],pest or weed control at 70 g/ha ([10]; 70 g ai/ha) [%],pest or weed control at 70 g/ha ([11]; 70 g ai/ha) [%],pest or weed control at 70 g/ha ([12]; 70 g ai/ha) [%],pest or weed control at 70 g/ha ([13]; 70 g ai/ha) [%],pest or weed control at 70 g/ha ([14]; 70 g ai/ha) [%]
120 to 121,"CCN(CC)c1c(Cl)ccc(-c2cc(N)c(Cl)c(C(=O)OC)n2)c1F [Compound 17, 4-Amino-3-chloro-6-[4-chloro-3-(diethylamino)-2-fluorophenyl]pyridine-2-carboxylic acid, methyl ester]",99,0,0,100,100,80,100,100,100,100,0,90,70,100,–,–,–,–,–
148 to 149,"CNc1c(Cl)ccc(-c2cc(N)c(Cl)c(C(=O)OC)n2)c1F [Compound 38, 4-Amino-3-chloro-6-[4-chloro-2-fluoro-3-(methylamino)phenyl]pyridine-2-carboxylic acid, methyl ester]",99,0,5,95,100,85,100,100,100,–,–,–,–,–,100,0,95,50,100
–,"COC(=O)c1nc(-c2ccc(Cl)c(C(C)F)c2F)cc(N)c1Cl (centres unmarked) [Compound 61, 4-Amino-3-chloro-6-[4-chloro-2-fluoro-3-(1-fluoroethyl)phenyl]pyridine-2-carboxylic acid, methyl ester]",75,0,10,99,90,85,100,100,100,100,0,100,80,100,–,–,–,–,–

# From patent US20070179060A1, “6-(Poly-substituted aryl)-4-aminopicolinates and their use as herbicides” (priority 2006, published 2007)
